This series is described as follows: Celecoxib solubility in PBS with Tween 80. The class given is physicochemical. The following applies: PBS with 0.2% Tween 80, aqueous with cosolvent or surfactant or cyclodextrin.

Values after ≈ are worked out from the molar mass of the structure shown.

For one compound, solubility results are on record in patent US9795679B2, “Biodegradable compositions suitable for controlled release” (INGELL TECHNOLOGIES HOLDING B.V., priority 2011, dated 2017).

A word on the solubility: it is the concentration that dissolves in the medium under given conditions. Higher therefore signals much dissolved substance. In the case of `Cc1ccc(-c2cc(C(F)(F)F)nn2-c2ccc(S(N)(=O)=O)cc2)cc1` [celecoxib], the solubility was in the range of 100 to 200 µg/mL (≈ 262 to 524 µM).
